Counter-ions that a name gives are not always drawn.
Columns and labels:
BT-474 Tam1 [1] = assay: drug sensitivity score (DSS) (DSS (dimensionless)); higher = more sensitive; extreme values may be limits of the assay; details: 4-OH-tamoxifen in medium 1 µM; 72 h
Procedure: (§1)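 FIMM FO2B library drugs were tested at 5 concentrations (10,000-fold range) for 72 h, with CellTiter-Glo viability normalised to DMSO and benzethonium chloride controls. The Drug Sensitivity Score (DSS) is computed from the fitted logistic dose-response curve (area-based; 0 = inactive). Resistant lines and the 'in 1µM tamoxifen' arms were tested in 1 µM 4-OH-tamoxifen.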

BT-474 Tam2 [2] = assay: as above; details: 4-OH-tamoxifen in medium 1 µM; 72 h
Procedure: as §1

BT-474 [3] = assay: as above; details: 72 h
Procedure: as §1

MCF-7 Tam1 [4] = assay: as above; details: 4-OH-tamoxifen in medium 1 µM; 72 h
Procedure: as §1

MCF-7 [5] = assay: as above; details: 72 h
Procedure: as §1

T-47D Tam1 [6] = assay: as above; details: 4-OH-tamoxifen in medium 1 µM; 72 h
Procedure: as §1

T-47D Tam2 [7] = assay: as above; details: 4-OH-tamoxifen in medium 1 µM; 72 h
Procedure: as §1

T-47D [8] = assay: as above; details: 72 h
Procedure: as §1

ZR-75-1 Tam1 [9] = assay: as above; details: 4-OH-tamoxifen in medium 1 µM; 72 h
Procedure: as §1

ZR-75-1 Tam2 [10] = assay: as above; details: 4-OH-tamoxifen in medium 1 µM; 72 h
Procedure: as §1

ZR-75-1 [11] = assay: as above; details: 72 h
Procedure: as §1

BT-474 Tam1 [12] = assay: relative IC50 (midpoint of fitted logistic curve, plateau may be below 50% inhibition; CellTiter-Glo viability); higher = less potent; details: 4-OH-tamoxifen in medium 1 µM; 72 h
Procedure: (§2)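 FIMM FO2B library drugs were plated at 5 concentrations spanning a 10,000-fold range in 384-well plates. Cells were incubated for 72 h at 37 °C and viability was read by CellTiter-Glo, normalised to DMSO (0% inhibition) and 100 µM benzethonium chloride (100% inhibition). IC50 values come from logistic dose-response fits (Breeze pipeline). Tamoxifen-resistant lines and the 'in 1µM tamoxifen' parental arms were tested in medium with 1 µM 4-OH-tamoxifen.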

BT-474 Tam2 [13] = assay: as above; details: 4-OH-tamoxifen in medium 1 µM; 72 h
Procedure: as §2

BT-474 [14] = assay: as above; details: 72 h
Procedure: as §2

MCF-7 Tam1 [15] = assay: as above; details: 4-OH-tamoxifen in medium 1 µM; 72 h
Procedure: as §2

MCF-7 [16] = assay: as above; details: 72 h
Procedure: as §2

T-47D Tam1 [17] = assay: as above; details: 4-OH-tamoxifen in medium 1 µM; 72 h
Procedure: as §2

T-47D [18] = assay: as above; details: 72 h
Procedure: as §2

ZR-75-1 Tam1 [19] = assay: as above; details: 4-OH-tamoxifen in medium 1 µM; 72 h
Procedure: as §2

ZR-75-1 Tam2 [20] = assay: as above; details: 4-OH-tamoxifen in medium 1 µM; 72 h
Procedure: as §2

ZR-75-1 [21] = assay: as above; details: 72 h
Procedure: as §2

T-47D Tam2 [22] = assay: as above; details: 4-OH-tamoxifen in medium 1 µM; 72 h
Procedure: as §2

Row | relative IC50 (BT-474 Tam1 [12]) [µM] | relative IC50 (BT-474 Tam2 [13]) [µM] | relative IC50 (BT-474 [14]; 4-OH-tamoxifen in medium 0 µM) [µM] | relative IC50 (BT-474 [14]; 4-OH-tamoxifen in medium 1 µM) [µM] | relative IC50 (MCF-7 Tam1 [15]) [µM] | relative IC50 (MCF-7 [16]; 4-OH-tamoxifen in medium 0 µM) [µM] | relative IC50 (MCF-7 [16]; 4-OH-tamoxifen in medium 1 µM) [µM] | relative IC50 (T-47D Tam1 [17]) [µM] | relative IC50 (T-47D [18]; 4-OH-tamoxifen in medium 0 µM) [µM] | relative IC50 (T-47D [18]; 4-OH-tamoxifen in medium 1 µM) [µM] | relative IC50 (T-47D Tam2 [22]) [µM] | SMILES | drug sensitivity score (BT-474 Tam1 [1]) | drug sensitivity score (BT-474 Tam2 [2]) | drug sensitivity score (BT-474 [3]; 4-OH-tamoxifen in medium 0 µM) | drug sensitivity score (BT-474 [3]; 4-OH-tamoxifen in medium 1 µM) | drug sensitivity score (MCF-7 Tam1 [4]) | drug sensitivity score (MCF-7 [5]; 4-OH-tamoxifen in medium 0 µM) | drug sensitivity score (MCF-7 [5]; 4-OH-tamoxifen in medium 1 µM) | drug sensitivity score (T-47D Tam1 [6]) | drug sensitivity score (T-47D Tam2 [7]) | drug sensitivity score (T-47D [8]; 4-OH-tamoxifen in medium 0 µM) | drug sensitivity score (T-47D [8]; 4-OH-tamoxifen in medium 1 µM) | drug sensitivity score (ZR-75-1 Tam1 [9]) | drug sensitivity score (ZR-75-1 Tam2 [10]) | drug sensitivity score (ZR-75-1 [11]; 4-OH-tamoxifen in medium 0 µM) | drug sensitivity score (ZR-75-1 [11]; 4-OH-tamoxifen in medium 1 µM) | relative IC50 (ZR-75-1 Tam1 [19]) [µM] | relative IC50 (ZR-75-1 Tam2 [20]) [µM] | relative IC50 (ZR-75-1 [21]; 4-OH-tamoxifen in medium 0 µM) [µM] | relative IC50 (ZR-75-1 [21]; 4-OH-tamoxifen in medium 1 µM) [µM]
1 | > 10 | > 10 | > 10 | > 10 | > 10 | > 10 | > 10 | > 10 | > 10 | > 10 |  | CC(C)C[C@H](NC(=O)[C@@H](COC(C)(C)C)NC(=O)[C@H](Cc1ccc(O)cc1)NC(=O)[C@H](CO)NC(=O)[C@H](Cc1c[nH]c2ccccc12)NC(=O)[C@H](Cc1cnc[nH]1)NC(=O)[C@@H]1CCC(=O)N1)C(=O)N[C@@H](CCCNC(=N)N)C(=O)N1CCC[C@H]1C(=O)NNC(N)=O [Goserelin acetate] | 0 | 0 | 0 | 0 | 0 | 0 | 0 | 0 | 0.105 | 0 | 0 | 0 | 0 | 0 | 0 | > 10 | > 10 | > 10 | > 10
2 | > 10 | > 10 | > 10 | > 10 | > 10 | > 10 | > 10 | > 10 | > 10 | > 10 |  | CC1(C)CNc2cc(NC(=O)c3cccnc3NCc3ccncc3)ccc21 [Motesanib  (AMG-706)] | 0 | 0 | 0 | 0 | 0 | 0 | 0 | 0 | 0.166 | 0 | 0 | 0 | 0 | 0 | 0 | > 10 | > 10 | > 10 | > 10
3 | > 10 | > 10 | > 10 | > 10 | > 10 | > 10 | > 10 | > 10 | > 10 | > 10 |  | CN(N=O)C(=O)N[C@@H](C=O)[C@@H](O)[C@H](O)[C@H](O)CO [Streptozocin] | 0 | 0 | 0 | 0 | 0 | 0 | 0 | 0 | 0 | 0 | 0 | 0 | 0 | 0 | 0 | > 10 | > 10 | > 10 | > 10
4 | > 1 | > 1 | > 1 | > 1 | > 1 | > 1 | > 1 | > 1 | > 1 |  |  | CC(=O)Nc1ccc(C(=O)Nc2ccccc2N)cc1 [Tacedinaline (CI-994)] | 0 | 0 | 0 | 0 | 0 | 0 | 0 | 0 | 0.132 | 0 | 0.0059 | 0 | 0 | 0 | 0 | > 1 | > 1 | > 1 | > 1
5 | 2.39 | 3.61 | 3.47 | 3.2 |  |  | 3.48 |  | > 10 |  | 3.29 | CC/C(=C(\c1ccccc1)c1ccc(OCCN(C)C)cc1)c1ccccc1 [Tamoxifen citrate] | 6.73 | 4.61 | 1.53 | 5.05 | 0.973 | 0 | 3.99 | 0.576 | 2.54 | 0 | 0 | 0.0116 | 0.865 | 0 | 1.69 |  |  | > 10 | 3.54
6 | > 10 | > 10 | > 10 | > 10 | > 10 | > 10 | > 10 | > 10 | > 10 |  |  | CCCC(CCC)C(=O)O [Valproic acid] | 0 | 0 | 0 | 0 | 0 | 0 | 0 | 0 | 1.73 | 0 | 0.0101 | 0 | 0 | 0 | 0 | > 10 | > 10 | > 10 | > 10
7 | > 10 | > 10 | > 10 |  | > 10 | > 10 | > 10 | > 10 | > 10 | > 10 |  | CCCS(=O)(=O)Nc1ccc(F)c(C(=O)c2c[nH]c3ncc(-c4ccc(Cl)cc4)cc23)c1F [Vemurafenib (PLX4032)] | 0 | 0 | 0 | 0.086 | 0 | 0 | 0 | 0 | 1.67 | 0 | 0 | 0 | 0 | 0 | 0 | > 10 | > 10 | > 10 | 

Reference: the supplement of paper PMC4932681
